The test system of experiment [1] is Pax7, MyoD, MyoG, Myf5, MyHC3, and MyHC8. The experiment in a line: CTX-induced muscle injury: transcript levels of regeneration genes. It counts as in vivo, mice. The method, then:
Impairment of muscle regeneration can contribute to age-related muscle weakness. This is particularly true in aged individuals who engage in physical activity. Exercise-induced muscle hypertrophy is linked to the capacity of muscle stem cells to be activated and promote regeneration. […] Mice were i.p injected with buprenorphine (Centravet, 0.1 mg/kg) 30 minutes before injury and the day after. The day of the injury, mice were anesthetized with isoflurane inhalation and hindlimbs were shaved. Then, 10 μM of cardiotoxin (CTX, Latoxan, #L8102) was injected through two injections of 25 μl into the left tibialis muscle and two injections of 50 μl into the left gastrocnemius muscle, using a 22-gauge needle (Hamilton). Mice were euthanized 3 and 7 days after injury by cervical dislocation, muscles (PBS- and CTX-injected) were cut in two parts, one being snap frozen into liquid nitrogen for total RNA extraction and the other part being embedded into OCT, frozen in isopentane cooled with liquid nitrogen for histological analysis.

Experiment [2] has as its system tibialis of aged mice. The experiment in a line: CTX-induced muscle injury: histology (cross-sectional area, centrally nucleated fibers). It counts as in vivo. Here is the method:
Impairment of muscle regeneration can contribute to age-related muscle weakness. This is particularly true in aged individuals who engage in physical activity. Exercise-induced muscle hypertrophy is linked to the capacity of muscle stem cells to be activated and promote regeneration.
Mice were i.p injected with buprenorphine (Centravet, 0.1 mg/kg) 30 minutes before injury and the day after. The day of the injury, mice were anesthetized with isoflurane inhalation and hindlimbs were shaved. Then, 10 μM of cardiotoxin (CTX, Latoxan, #L8102) was injected through two injections of 25 μl into the left tibialis muscle and two injections of 50 μl into the left gastrocnemius muscle, using a 22-gauge needle (Hamilton). Mice were euthanized 3 and 7 days after injury by cervical dislocation, muscles (PBS- and CTX-injected) were cut in two parts, one being snap frozen into liquid nitrogen for total RNA extraction and the other part being embedded into OCT, frozen in isopentane cooled with liquid nitrogen for histological analysis.
Mouse muscle samples were dissected and cryopreserved in OCT frozen in liquid nitrogen cooled isopentane. Samples were then sectioned at 10 μm on a cryostat and post-fixed with 4% Paraformaldehyde (PFA) for 15min at room temperature. Muscle frozen sections (10 μm) were stained by helaun/eosin or immune-labeled for laminin (Abcam) and embryonic myosin. Briefly, sections were blocked 1 h in PBS plus 4% BS(a), 2% goat serum, 0.01% Triton X-100. Sections were then incubated overnight with primary antibodies. After washes in PBS, sections were incubated 1 h with secondary antibodies anti-Ig2b AF 488 (Life Technology). Slides were finally mounted in ProLong Gold antifade Reagent (Molecular probes by Life Technology) with DAPI. Images were captured using a digital camera (Nanozoomer, Hamamatsu) attached to a motorized fluorescence microscope or using Olympus VS120 Virtual Microscopy Slide Scanning System. The area covered by eMHC-positive fibers and degenerated area was determined manually across the entire sections using the VS-ASW FL software measurement tools. The size of myofibers with central nuclei was calculated from laminin/DAPI staining on all fibers of the section and area determination were performed across the entire sections, using an automated image processing algorithm developed internally using the MetaXpress software (Molecular Devices).

The mark [3] stands for this setting: gastrocnemius, aged mice, 3 or 7 days, apelin 0.5 μmol/kg/day, BGE-105 50 and 200 mg/kg/day.
[4] abbreviates: gastrocnemius, young mice, 3 or 7 days, apelin 0.5 μmol/kg/day, BGE-105 50 and 200 mg/kg/day.
Setting [5] is: tibialis anterior, aged mice, 7 days, apelin 0.5 μmol/kg/day, BGE-105 50 and 200 mg/kg/day.
The mark [6] stands for this setting: tibialis, young mice, 3 or 7 days, apelin 0.5 μmol/kg/day, BGE-105 50 and 200 mg/kg/day.

With `CSCC[C@H](NC(=O)[C@@H]1CCCN1C(=O)CNC(=O)[C@H](CCCCN)NC(=O)[C@H](Cc1c[nH]cn1)NC(=O)[C@H](CO)NC(=O)[C@H](CC(C)C)NC(=O)[C@H](CCCNC(=N)N)NC(=O)[C@@H]1CCCN1C(=O)[C@H](CCCNC(=N)N)NC(=O)[C@@H]1CCC(=O)N1)C(=O)N1CCC[C@H]1C(=O)N[C@@H](Cc1ccccc1)C(=O)O` [Pyr^1-Apelin-13, reference compound], the Pax7 transcript levels result is on record as “no significant change” in experiment [1] (gastrocnemius, aged (18-month-old) mice, 3 or 7 days, apelin 0.5 μmol/kg/day, BGE-105 50 and 200 mg/kg/day); “no change” in experiment [1] (gastrocnemius, young (3-month-old) mice, 3 or 7 days, apelin 0.5 μmol/kg/day, BGE-105 50 and 200 mg/kg/day); “significant increase” in experiment [1] (tibialis anterior, aged (18-month-old) mice, 7 days post cardiotoxin, apelin 0.5 μmol/kg/day, BGE-105 50 and 200 mg/kg/day); “no change” in experiment [1] (tibialis, young (3-month-old) mice, 3 or 7 days, apelin 0.5 μmol/kg/day, BGE-105 50 and 200 mg/kg/day). In addition, the MyoD transcript levels entry in experiment [1] (gastrocnemius, aged mice, 3 and 7 days, apelin 0.5 μmol/kg/day, BGE-105 50 and 200 mg/kg/day) was “significant increase”; in experiment [1] (setting [4]), “no change”; in experiment [1] (tibialis anterior, aged mice, 3 and 7 days post cardiotoxin, apelin 0.5 μmol/kg/day, BGE-105 50 and 200 mg/kg/day) it was “significant increase”; in experiment [1] (setting [6]), “no significant increase”. For the same compound, the Myf5 transcript levels entry in experiment [1] (setting [3]) was “no significant change”; in experiment [1] (setting [4]), “no change”; in experiment [1] (setting [5]), “significant change”; in experiment [1] (setting [6]), “no difference”. The MyoG transcript levels entry in experiment [1] (setting [3]) is “no significant change”; in experiment [1] (setting [4]) it was “no change”; in experiment [1] (setting [5]), “significant increase”; in experiment [1] (setting [6]) it was “no difference”. The MyHC8 transcript levels entry in experiment [1] (gastrocnemius, aged mice, any time point, any treatment) is reported as “does not show a change”; in experiment [1] (gastrocnemius, young mice, 3 days, apelin 0.5 μmol/kg/day, BGE-105 50 and 200 mg/kg/day), “non-significant increase”; in experiment [1] (setting [6]) it was “no significant change”. The MyHC3 transcript levels result in experiment [1] (setting [5]) is on record as “significant increase”; in experiment [1] (setting [6]), “no significant change”. Moreover, the “amount of centrally nucleated myofibers (CNM)” value in experiment [2] (18-months old mice after cardiotoxin, apelin 0.5 μmol/kg/day, BGE-105 200 mg/kg/day) is on record as “significant increase”. The “cross-sectional area of the tibialis” value in experiment [2] (aged mice, 3 and 7 days post cardiotoxin, apelin, BGE-105 50 and 200 mg/kg/d) is reported as “significant increase in cross sectional area”.
